# Results published in patent US10941132B2, “Pyrazole derivatives” (HUA MEDICINE (SHANGHAI) Ltd., priority 2016, dated 2021).
# Molecular target: T1, recombinant rat mGluR5 (Rattus norvegicus, UniProt P31424)
# T1 construct: expressed in transfected cells
# Assay: Functional calcium flux assay (FLIPR), antagonist evaluation against glutamate-evoked [Ca2+]i increase
# Assay type: cell-based
# Details: Table 1; HEK293 cells stably expressing recombinant rat mGluR5; 15 min incubation of test compound, then submaximal glutamate; read-out: IC50 value (FLIPR assay)
# Experimental: Functional Calcium Clux Assay Methodology
# For functional assays, HEK293 cells stably expressing recombinant rat mGluR5 were seeded in 384-well plates and dye loaded using Fluo-8. Cells were then washed to remove the un-incorporated dye. Antagonist evaluation was performed following a 15 min incubation of the test compound followed by the addition of submaximal concentration of glutamate. Intracellular calcium ([Ca^2+]i) measurements were performed using a fluorometric imaging plate reader (FLIPR, Molecular Devices). The glutamate-evoked increase in [Ca^2′]i in the presence of the test compounds was compared to the response to glutamate alone (the positive control). Antagonist inhibition curves were fitted with a 4-parameter logistic equation giving IC50 values, and Hill coefficients using an iterative nonlinear curve fitting algorithm.
# The tables below provide IC50 data in this assay. In the activity column, A=IC50>1,000 and ≤5,000 nM; B=IC50>500 and ≤1,000 nM and C=IC50≤500 nM.
# T1 sequence (P31424 21-1203): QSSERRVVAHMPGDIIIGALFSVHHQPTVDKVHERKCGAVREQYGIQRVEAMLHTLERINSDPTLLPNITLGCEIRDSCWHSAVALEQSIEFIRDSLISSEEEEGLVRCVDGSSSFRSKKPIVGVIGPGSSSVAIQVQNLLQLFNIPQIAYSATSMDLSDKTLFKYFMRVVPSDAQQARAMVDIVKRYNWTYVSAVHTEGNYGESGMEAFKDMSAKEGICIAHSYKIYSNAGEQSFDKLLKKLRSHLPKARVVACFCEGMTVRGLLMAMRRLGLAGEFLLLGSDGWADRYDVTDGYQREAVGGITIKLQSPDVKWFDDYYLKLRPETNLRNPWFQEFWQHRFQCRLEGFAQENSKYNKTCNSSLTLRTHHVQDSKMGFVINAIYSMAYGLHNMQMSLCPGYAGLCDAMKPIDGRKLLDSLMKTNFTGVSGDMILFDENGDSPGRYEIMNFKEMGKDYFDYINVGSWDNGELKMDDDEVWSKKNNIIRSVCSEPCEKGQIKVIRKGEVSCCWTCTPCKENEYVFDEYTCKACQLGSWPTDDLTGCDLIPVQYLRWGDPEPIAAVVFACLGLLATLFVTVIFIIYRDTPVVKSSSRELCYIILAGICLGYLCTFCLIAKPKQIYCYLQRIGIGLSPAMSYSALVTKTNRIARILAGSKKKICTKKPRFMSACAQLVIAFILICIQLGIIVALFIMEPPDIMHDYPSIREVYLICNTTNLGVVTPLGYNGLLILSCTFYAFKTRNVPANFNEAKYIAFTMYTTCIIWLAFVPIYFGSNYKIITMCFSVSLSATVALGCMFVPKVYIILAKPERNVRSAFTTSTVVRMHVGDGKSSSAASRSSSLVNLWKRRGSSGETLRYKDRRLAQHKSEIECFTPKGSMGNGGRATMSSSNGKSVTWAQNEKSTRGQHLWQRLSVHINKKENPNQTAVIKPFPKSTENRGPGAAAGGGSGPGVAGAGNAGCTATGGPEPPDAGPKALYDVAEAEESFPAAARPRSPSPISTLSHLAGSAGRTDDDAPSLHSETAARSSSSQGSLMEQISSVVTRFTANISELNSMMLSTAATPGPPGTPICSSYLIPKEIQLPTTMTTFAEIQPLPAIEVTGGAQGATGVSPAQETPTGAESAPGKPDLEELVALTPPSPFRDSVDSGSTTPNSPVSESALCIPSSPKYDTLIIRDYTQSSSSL
row,IC50,SMILES
1,0.5 to 1 µM,"N#Cc1cc(F)cc(-n2cc(C#Cc3cccc(Cl)c3)cn2)c1 [Compound 77, 3-fluoro-5-(4-(3-chloro-phenylethynyl)-1H-pyrazol-1-yl) benzonitrile]"
2,1 to 5 µM,"N#Cc1cc(F)cc(-n2cc(C#Cc3ccccc3)cn2)c1 [Compound 74, 3-fluoro-5-(4-(phenylethynyl)-H-pyrazol-1-yl)benzonitrile]"
3,≤ 0.5 µM,"N#Cc1cc(F)cc(-n2cc(C#Cc3ccccn3)c(Cl)n2)c1 [Compound 38, 3-(3-chloro-4-(pyridin-2-ylethynyl)-1H-pyrazol-1-yl)-5-fluorobenzonitrile]"
4,≤ 0.5 µM,"COCCOc1nn(-c2cc(F)cc(C#N)c2)cc1C#Cc1ccccn1 [Compound 32, 3-fluoro-5-(3-(2-methoxyethoxy)-4-(pyridin-2-ylethynyl)-1H-pyrazol-1-yl)benzonitrile]"
5,1 to 5 µM,"FC(F)(F)Oc1ccc(-n2cc(C#Cc3cnccn3)cn2)cc1 [Compound 65, 2-((1-(4-(trifluoromethoxy)phenyl)-1H-pyrazol-4-yl)ethyny)pyrazine]"
6,1 to 5 µM,"Cc1c(C#Cc2ccccn2)c(N(C)C)nn1-c1cc(F)cc(C#N)c1 [Compound 15, 3-(3-(dimethylaminuteso)-5-methyl-4-(2-(pyridin-2-yl)ethynyl)-1H-pyrazol-1-yl)-5-fluorobenzonitrile]"
7,1 to 5 µM,"COCCOc1nn(-c2ccc(OC(F)(F)F)cc2)cc1C#Cc1ccccn1 [Compound 31, 2-((3-(2-methoxyethoxy)-1-(4-(trifluoromethoxy)phenyl)-1H-pyrazol-4-yl)ethynyl)pyridine]"
8,0.5 to 1 µM,"CS(=O)(=O)c1ccc(-n2cc(C#Cc3ccccn3)cn2)cc1 [Compound 46, 2-((1-(4-(methylsulfonyl)phenyl)-1H-pyrazol-4-yl)ethynyl)pyridine]"
9,≤ 0.5 µM,"Fc1ccc(-n2cc(C#Cc3cccc(Cl)c3)cn2)cc1 [Compound 84, 4-((3-chlorophenyl)ethynyl)-1-(4-fluorophenyl)-1H-pyrazole]"
10,≤ 0.5 µM,Fc1ccc(-n2ncc(C#Cc3ccccn3)c2Cl)cc1 [Compound 20]
11,≤ 0.5 µM,"Fc1ccc(-n2cc(C#Cc3cnccn3)cn2)cc1 [Compound 88, 2-((1-(4-fluorophenyl)-1H-pyrazol-4-yl)ethynyl)pyrazine]"
12,≤ 0.5 µM,"Cc1c(C#Cc2ccccn2)c(OC(F)F)nn1-c1cc(F)cc(C#N)c1 [Compound 37, 3-(3-(difluoromethoxy)-5-methyl-4-(pyridin-2-ylethynyl)-1H-pyrazol-1-yl)-5-fluorobenzonitrile]"

# Same assay, conditions: Table 2; HEK293 cells stably expressing recombinant rat mGluR5; 15 min incubation of test compound, then submaximal glutamate; read-out: IC50 (FLIPR assay)
row,IC50,SMILES
1,≤ 0.5 µM,"N#Cc1cc(F)cc(-n2cc(Cl)c(C#Cc3ccccn3)n2)c1 [Compound 61, 3-(4-chloro-3-(pyridin-2-ylethynyl)-1H-pyrazol-1-yl)-5-fluorobenzonitrile]"
2,≤ 0.5 µM,"Cc1cc(C#Cc2cnccn2)nn1-c1cc(F)cc(C#N)c1 [Compound 103, 3-fluoro-5-(5-methyl-3-(pyrazin-2-ylethynyl)-1H-pyrazol-1-yl) Benzonitrile]"
3,1 to 5 µM,"Cc1cc(C#Cc2cnccn2)nn1-c1ccc(F)cc1 [Compound 129, 2-((1-(4-fluorophenyl)-5-methyl-1H-pyrazol-3-yl)ethynyl)pyrazine]"
4,0.5 to 1 µM,"Fc1ccc(-n2ccc(C#Cc3ncccn3)n2)cc1 [Compound 117, 2-((1-(4-fluorophenyl)-1H-pyrazol-3-yl)ethynyl)pyrimidine]"
5,1 to 5 µM,FC(F)(F)Oc1ccc(-n2ccc(C#Cc3ccccc3)n2)cc1 [Compound 120]
6,≤ 0.5 µM,"N#Cc1cc(F)cc(-n2ccc(C#Cc3ccncc3)n2)c1 [Compound 110, 3-fluoro-5-(3-(pyridin-4-ylethynyl)-H-pyrazol-1-yl)benzonitrile]"
7,1 to 5 µM,"Fc1ccc(-n2ccc(C#Cc3ccccc3)n2)cc1 [Compound 113, 1-(4-fluorophenyl)-3-(phenylethynyl)-1H-pyrazole]"
8,≤ 0.5 µM,"Cc1cc(C#Cc2ccncc2)nn1-c1ccc(F)cc1 [Compound 130, 4-((1-(4-fluorophenyl)-5-methyl-1H-pyrazol-3-yl)ethynyl) pyridine]"
